Assay results as given in BindingDB's records for patent US20240209019 (Ardelyx, 2024).

Biological target: T1, 11-beta-hydroxysteroid dehydrogenase type 2 (Homo sapiens, UniProt P80365)
T1 sequence (P80365 whole entry): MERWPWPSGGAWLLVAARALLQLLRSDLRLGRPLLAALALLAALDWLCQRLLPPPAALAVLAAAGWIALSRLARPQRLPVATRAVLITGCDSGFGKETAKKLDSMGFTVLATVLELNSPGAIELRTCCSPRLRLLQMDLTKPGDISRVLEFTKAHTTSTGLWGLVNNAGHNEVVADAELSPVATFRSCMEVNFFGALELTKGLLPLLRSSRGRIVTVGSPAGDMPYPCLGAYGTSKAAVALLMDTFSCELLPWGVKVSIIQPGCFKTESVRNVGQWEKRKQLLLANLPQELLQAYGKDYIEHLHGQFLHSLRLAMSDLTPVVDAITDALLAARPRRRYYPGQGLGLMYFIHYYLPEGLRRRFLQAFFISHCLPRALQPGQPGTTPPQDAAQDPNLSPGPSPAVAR
Experiment: HSD2 Activity
Description: Compounds were diluted in DMSO and serial dilutions prepared by titrating in DMSO. Compounds were then diluted into DMEM/F12. Transwell plates containing descending colon cultures were washed twice with DMEM/F12 and compound was added to the apical compartment. Cells were incubated with test compound for 30 minutes at 37° C., 5% CO2 to equilibrate across the cell membrane. A second compound plate was prepared in which the serially diluted compounds in DMSO were diluted into DMEM/F12 containing 40 nM cortisol. Following the 30 minute pre-incubation step, the apical media was aspirated and compounds diluted in DMEM/F12 with 40 nM cortisol were added to the apical side of the transwell. The plate was then incubated for four hours at 37° C., 5% CO2. Cortisol levels were measured using a cortisol HTRF assay kit as described by the manufacturer (Cisbio).

## CCCOCCOCCOCCOC(=O)O[C@H]1CC[C@@]2(C)[C@@H](CC[C@]3(C)[C@@H]2C(=O)C=C2[C@@H]4C[C@@](C)(C(=O)O)CC[C@]4(C)CC[C@]23C)[C@]1(C)C(=O)O [US20240209019, Compound noid16]
  IC50: > 10 µM
